Test results taken from ChEMBL document CHEMBL1201862, “PubChem BioAssay data set” (2004).
The source made the active and inactive calls.

Legend:
[1] = tested on: Streptococcus sp. 'group A'; assay: growth inhibition of control SK(-) GAS strain, dose response, counter-screen for streptokinase expression inhibitor project, luminescence, kanamycin, BacTiterGlo, confirmation (AID 1900); assay type: functional, organism-based
[2] = target: T1, Streptokinase A (Streptococcus pyogenes serotype M1, UniProt P10520); assay: S. pyogenes streptokinase expression inhibitors, potency, dose response, plasminogen activation absorbance, OD405 (AID 1914); assay type: functional, Streptococcus pyogenes M1 GAS;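 also: secreted streptokinase activity via plasminogen activation per viability signal from cell pellet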
T1 sequence (P10520 whole entry): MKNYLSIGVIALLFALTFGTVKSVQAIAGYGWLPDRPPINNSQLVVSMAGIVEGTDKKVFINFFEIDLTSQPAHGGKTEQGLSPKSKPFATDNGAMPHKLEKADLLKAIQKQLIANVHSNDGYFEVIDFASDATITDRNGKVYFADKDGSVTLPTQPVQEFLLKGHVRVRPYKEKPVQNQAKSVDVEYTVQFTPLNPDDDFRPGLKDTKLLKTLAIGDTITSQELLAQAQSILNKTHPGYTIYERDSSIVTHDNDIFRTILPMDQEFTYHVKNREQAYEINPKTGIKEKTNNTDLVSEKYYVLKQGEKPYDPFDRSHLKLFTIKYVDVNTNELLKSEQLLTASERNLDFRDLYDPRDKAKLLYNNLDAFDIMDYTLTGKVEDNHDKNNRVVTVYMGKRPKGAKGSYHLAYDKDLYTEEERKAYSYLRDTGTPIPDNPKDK

[3] = tested on: Streptococcus; assay: Group A Streptococcus viability loss, dose response, counter-screen for streptokinase expression inhibitor project, luminescence, BacTiterGlo (AID 1915); assay type: functional, organism-based;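 also: potency for reduction of bacterial viability or growth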
[4] = target: Cytochrome P450 2C9 (Homo sapiens, UniProt P11712)
[5] = inhibitors of intracellular T. cruzi replication, confirmation, NIH3T3 host cells, beta-gal luminescence (AID 2044); assay type: functional, cell-based;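 also: intracellular parasites grown in NIH/3T3 mouse fibroblasts as host cells; luminescent beta-galactosidase reporter signal from transgenic T. cruzi replicating inside host cells; inhibitors lower the luminescence signal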
[6] = cytotoxicity toward NIH3T3 fibroblasts, dose response, counter-screen, cell-based, ATP luminescence, mouse fibroblasts (AID 2010); assay type: functional;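 also: cells exposed to compound for about 90 hours before reading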
[7] = target: Cytochrome P450 2C19 (Homo sapiens, UniProt P33261); assay: Cytochrome panel assay with activity outcomes. Panel member name: p450-cyp2c19 Compounds with AC50 equal or less than 10 uM are considered active; assay type: functional
[8] = target: T2, Heat shock factor protein 1 (Mus musculus, UniProt P38532); assay: inhibition of MG132-induced HSE-luciferase signal, confirmation, cell-based, NIH3T3, luminescence, dose retest (AID 2382); assay type: functional;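 also: NIH3T3 fibroblasts with HSF1-driven luciferase reporter stressed by proteasome inhibitor MG132; luminescence from HSF1-driven luciferase expression after 8 hours of MG132 stress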
T2 sequence (P38532 whole entry): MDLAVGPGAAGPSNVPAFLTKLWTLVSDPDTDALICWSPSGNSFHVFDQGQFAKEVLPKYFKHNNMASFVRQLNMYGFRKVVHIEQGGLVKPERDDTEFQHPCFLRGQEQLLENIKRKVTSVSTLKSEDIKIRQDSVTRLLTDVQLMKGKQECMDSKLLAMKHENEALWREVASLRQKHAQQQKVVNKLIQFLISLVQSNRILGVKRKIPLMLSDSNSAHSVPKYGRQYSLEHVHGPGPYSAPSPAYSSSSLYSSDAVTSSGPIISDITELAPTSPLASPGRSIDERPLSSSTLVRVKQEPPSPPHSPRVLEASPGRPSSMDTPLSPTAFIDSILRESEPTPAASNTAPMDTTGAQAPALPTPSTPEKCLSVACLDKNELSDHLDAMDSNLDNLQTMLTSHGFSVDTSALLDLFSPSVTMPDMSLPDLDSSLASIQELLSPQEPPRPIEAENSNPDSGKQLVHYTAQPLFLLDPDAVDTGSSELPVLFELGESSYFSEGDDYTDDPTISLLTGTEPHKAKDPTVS

Sequence of Cytochrome P450 2C9 (P11712 whole entry): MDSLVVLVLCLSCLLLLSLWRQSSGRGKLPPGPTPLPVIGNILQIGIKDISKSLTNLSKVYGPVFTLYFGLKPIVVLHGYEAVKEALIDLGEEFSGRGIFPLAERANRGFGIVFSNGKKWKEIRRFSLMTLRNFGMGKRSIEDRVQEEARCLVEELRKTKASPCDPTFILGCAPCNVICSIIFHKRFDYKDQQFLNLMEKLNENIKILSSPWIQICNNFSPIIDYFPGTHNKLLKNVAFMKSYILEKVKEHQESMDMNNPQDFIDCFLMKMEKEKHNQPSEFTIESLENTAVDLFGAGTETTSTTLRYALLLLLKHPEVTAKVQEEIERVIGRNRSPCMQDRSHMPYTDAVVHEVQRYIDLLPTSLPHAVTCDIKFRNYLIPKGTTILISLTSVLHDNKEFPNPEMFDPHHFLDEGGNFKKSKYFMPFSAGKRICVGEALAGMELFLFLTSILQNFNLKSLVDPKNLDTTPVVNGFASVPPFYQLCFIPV
Sequence of Cytochrome P450 2C19 (P33261 whole entry): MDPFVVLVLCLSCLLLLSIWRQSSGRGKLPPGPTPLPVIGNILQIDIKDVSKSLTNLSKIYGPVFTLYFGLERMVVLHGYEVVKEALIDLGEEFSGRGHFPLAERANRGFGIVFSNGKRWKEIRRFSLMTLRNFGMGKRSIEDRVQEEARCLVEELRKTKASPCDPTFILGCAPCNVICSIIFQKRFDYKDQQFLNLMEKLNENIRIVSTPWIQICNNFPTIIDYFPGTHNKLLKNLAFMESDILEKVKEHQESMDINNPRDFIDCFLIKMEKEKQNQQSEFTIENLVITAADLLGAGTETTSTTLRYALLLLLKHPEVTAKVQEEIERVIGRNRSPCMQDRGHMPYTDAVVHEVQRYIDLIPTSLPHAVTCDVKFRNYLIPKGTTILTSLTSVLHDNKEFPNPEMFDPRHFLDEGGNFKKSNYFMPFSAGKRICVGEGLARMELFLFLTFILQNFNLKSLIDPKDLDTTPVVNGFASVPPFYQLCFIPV

SMILES: CNC(=O)C(=O)NCC1OCCN1S(=O)(=O)c1ccc(OC)c(OC)c1 (stereo unspecified)
- EC50 [1]: > 150 µM (not active)
- EC50 [2]: > 150 µM (not active)
- EC50 [3]: > 150 µM (not active)

SMILES: CCOc1cccc(N(C(=O)c2ccco2)C(C(=O)NC2CCCC2)c2cccnc2)c1 (stereo unspecified)
- EC50 [1]: > 150 µM (not active)
- EC50 [2]: > 150 µM (not active)
- EC50 [3]: > 150 µM (not active)

SMILES: O=C(c1cnccn1)N1CCC2(CC1)CN(Cc1ccncc1)C2
- AC50 [4]: 31.6 µM (inconclusive)

SMILES: O=C(Nc1cc(Sc2ccccn2)cc([N+](=O)[O-])c1)c1cccc(Cl)c1
- EC50 [5]: 0.625 µM (active)
- EC50 [6]: > 60 µM (not active)

SMILES: COC(=O)[C@H](Cc1ccccc1)NC(=O)[C@@H](C)CO
- AC50 [4]: 3.98 µM (inconclusive)

SMILES: Oc1cc(CN2COc3ccccc32)c(O)cc1CNC1CCCCC1
- AC50 ([7]; read-out: AC50): 1.26 µM (inconclusive)
- AC50 [4]: 6.31 µM (inconclusive)

SMILES: O=C(O)CSc1ccn(Cc2ccccc2)c1
- AC50 [7]: inconclusive

SMILES: CCCCCC(=O)NNC(=O)c1c(O)c2ccccc2n(CC)c1=O
- EC50 [1]: 7.72 µM (active)
- EC50 [2]: > 50 µM (not active)
- EC50 [3]: 19.1 µM (active)

SMILES: Cn1ncc(Cl)c1C(=O)N1CCC2(CC1)OCCO2
- EC50 [1]: > 150 µM (not active)
- EC50 [2]: > 150 µM (not active)
- EC50 [3]: > 150 µM (not active)

SMILES: C[C@]12CC[C@@H]3C(=CCc4cc(O)ccc43)[C@@H]1CCC2=O
- AC50 ([7]; read-out: AC50): 7.94 µM (inconclusive)

SMILES: Clc1ccc(COn2c(-c3ccc(Cl)cc3)nc3ccccc32)cc1
- EC50 [1]: 8.35 µM (active)
- EC50 [2]: > 50 µM (not active)
- EC50 [3]: 10.8 µM (active)

SMILES: NS(=O)(=O)c1ccc(/N=N\c2ccc(O)c(C(=O)O)c2)cc1
- AC50 [4]: 1 µM (inconclusive)

SMILES: Cc1ccc(NC(=O)C2CCN(S(C)(=O)=O)CC2)cc1
- AC50 ([7]; read-out: AC50): 20 µM (inconclusive)

SMILES: CN1C(C(=O)Nc2ccc(OC(F)(F)F)cc2)=CC(c2cccs2)=NS1(=O)=O
- EC50 [8]: 62.2 µM (active)

SMILES: O=C(CCc1nc(-c2cccs2)no1)NCc1ccc(F)cc1Cl
- EC50 [8]: > 195 µM (not active)

SMILES: O=S(=O)(CCc1nc2ccccc2[nH]1)c1ccc(Cl)cc1
- EC50 [8]: > 195 µM (not active)

SMILES: CC1=NN(C(N)=S)C(=O)C1N=Nc1c(C)cc(C)cc1C (stereo unspecified)
- EC50 [1]: 5.14 µM (active)
- EC50 [2]: > 150 µM (not active)
- EC50 [3]: > 150 µM (not active)

SMILES: CCN(CC)c1ccc(CNc2nc3ccccc3n2CCN2CCOCC2)cc1
- EC50 [8]: > 195 µM (not active)

SMILES: c1ccc(C(NCCNC(c2ccccc2)c2ccccc2)c2ccccc2)cc1
- EC50 [1]: 1.51 µM (active)
- EC50 [2]: 12 µM (active)
- EC50 [3]: 20.8 µM (active)

SMILES: COc1ccc(C(=O)N2CCC3(CCN(Cc4ccncc4)CC3)CC2)cc1
- AC50 [4]: 7.94 µM (inconclusive)

SMILES: CC(=O)OCC1=C(C(=O)O)N2C(=O)C(NC(=O)Cn3nc(C(F)F)c(Cl)c3C)C2SC1 (stereo unspecified)
- EC50 [1]: < 0.06 µM (active)
- EC50 [3]: 0.111 µM (active)

SMILES: CN(C)C(=O)CSc1nnc(O)nc1O
- EC50 [8]: > 195 µM (not active)

SMILES: COc1ccc(C(=O)C2CCCN(Cc3cnc(N4CCOCC4)s3)C2)c(OC)c1 (stereo unspecified)
- EC50 [5]: 0.991 µM (active)
- EC50 [6]: > 60 µM (not active)

SMILES: CCC(=O)n1nc(-c2cccnc2)nc1NCc1cccs1
- EC50 [8]: > 195 µM (not active)

SMILES: COc1ccc(OC)c(NC(=O)NCc2cccnc2)c1
- EC50 [1]: > 150 µM (not active)
- EC50 [2]: > 150 µM (not active)
- EC50 [3]: > 150 µM (not active)

SMILES: CCn1cnc2c1c(=O)n(CC(=O)Nc1cc(C)on1)c(=O)n2Cc1ccccc1
- EC50 [1]: > 150 µM (not active)
- EC50 [2]: > 150 µM (not active)
- EC50 [3]: > 150 µM (not active)

SMILES: COC(=O)c1cc(C(=O)Nc2ccc(S(=O)(=O)NC(C)(C)C)cc2)cc([N+](=O)[O-])c1
- EC50 [5]: 0.797 µM (active)
- EC50 [6]: > 60 µM (inconclusive)

SMILES: CCN(CC)CCCSc1nc2ccccc2s1
- EC50 [5]: 0.445 µM (active)
- EC50 [6]: > 30 µM (not active)

SMILES: C[C@@H](CCCCC(=O)Nc1ccc(C(F)(F)F)cc1)NCCc1c[nH]cn1
- AC50 ([7]; read-out: AC50): 15.8 µM (inconclusive)

SMILES: CCOc1ccc(CCNC(=O)c2cc(-c3ccccc3)c(N3CCOCC3)s2)cc1
- EC50 [5]: 1.45 µM (active)
- EC50 [6]: > 60 µM (not active)

SMILES: CCCCN(C)CC(O)Cn1cc(/C=C/C(=O)c2ccc(OCC)cc2)c2ccccc21 (stereo unspecified)
- EC50 [5]: 0.154 µM (active)
- EC50 [6]: 6.17 µM (active)

SMILES: Cc1[nH]c2ccccc2c1/C=C/c1nc2ccccc2c(=O)n1-c1cccc([N+](=O)[O-])c1
- EC50 [8]: > 195 µM (not active)

SMILES: N#Cc1cccc(-c2cc(NCc3cccnc3)ncn2)c1
- AC50 ([7]; read-out: AC50): 15.8 µM (inconclusive)

SMILES: CCOC(=O)c1cccc(NC(=O)C2CCN(c3ncnc4c3nc3n4CCCCC3)CC2)c1
- EC50 [8]: > 195 µM (not active)

SMILES: CCOc1ccc(-n2c(SCc3nc(-c4cccs4)no3)nnc2-c2ccncc2)cc1
- EC50 [5]: 1.25 µM (active)
- EC50 [6]: > 60 µM (not active)

SMILES: COc1ccc(-c2cc3nc(C)c(CCC(=O)NCc4ccc(F)cc4)c(C)n3n2)c(OC)c1
- EC50 [5]: 1.33 µM (active)
- EC50 [6]: > 60 µM (inconclusive)

SMILES: Cc1cccc(C(=O)NC2CCN(C(=O)N3CCOCC3)CC2)c1
- AC50 ([7]; read-out: AC50): 31.6 µM (inconclusive)

SMILES: CCS(=O)(=O)c1nc(S(=O)(=O)c2ccc(C)cc2)c(NCCN2CCOCC2)s1
- EC50 [1]: > 150 µM (not active)
- EC50 [2]: > 150 µM (not active)
- EC50 [3]: > 150 µM (not active)

SMILES: CCOC(=O)n1c(SCC(N)=O)nc2ccccc21
- EC50 [8]: > 195 µM (not active)

SMILES: C=CCO/C(O)=C1\C(C)=NC(SCC)=C(C#N)C1c1ccc(Cl)cc1 (stereo unspecified)
- EC50 [1]: 4.9 µM (active)
- EC50 [2]: 8.34 µM (active)
- EC50 [3]: 17.6 µM (active)

SMILES: COc1ccc(O[C@H]2C=C[C@@H](c3ccccc3)O[C@H]2COC(=O)CC/C(C)=N\O[C@@H](C)c2cc(-c3c(C)cc(C)cc3C)no2)cc1
- AC50 [4]: 1.58 µM (inconclusive)

SMILES: CN1CCN(C(=O)c2ccc3c(=O)n4c(nc3c2)CCCCC4)CC1
- AC50 ([7]; read-out: AC50): 10 µM (inconclusive)

SMILES: O=C(C1CCC(CNS(=O)(=O)c2cccc3cccnc23)CC1)N1CCCC1 (stereo unspecified)
- EC50 [8]: > 195 µM (not active)

SMILES: CCOc1ccc(-n2c(C)cc(/C=C3/C(=N)N4C(=NC3=O)SN=C4S(C)(=O)=O)c2C)cc1
- EC50 [1]: 0.599 µM (active)
- EC50 [2]: > 150 µM (not active)
- EC50 [3]: 17.5 µM (active)

SMILES: Cc1cc(C)n(-c2cc(N3CCN(S(=O)(=O)c4ccc(C)c(C)c4)CC3)ccc2[N+](=O)[O-])n1
- AC50 [4]: 2.24 µM (inconclusive)

SMILES: Cc1ccc(CN2C(=O)CCC2C(=O)NCc2cccnc2)cc1 (stereo unspecified)
- AC50 [4]: 28.2 µM (inconclusive)

SMILES: Clc1ccc(/C=N/N=C(/Nc2ccccc2)c2ccccn2)c(Cl)c1
- EC50 [1]: 10.9 µM (active)
- EC50 [2]: > 150 µM (not active)
- EC50 [3]: 30.2 µM (active)

SMILES: O=C(O)CCC(=O)N1CCc2cc(S(=O)(=O)NCc3cccs3)ccc21
- AC50 ([7]; read-out: AC50): 25.1 µM (inconclusive)
- AC50 [4]: 31.6 µM (inconclusive)

SMILES: COCCOC(=O)C1=C(C)N=C(C)/C(=C(/O)OC(C)C)C1c1cccc([N+](=O)[O-])c1 (stereo unspecified)
- EC50 [5]: 1.31 µM (active)
- EC50 [6]: > 60 µM (not active)

SMILES: CCOc1nn(-c2ccc(Cl)cc2)c(O)c1/C=N/c1ccc(Cl)cc1
- AC50 [4]: 12.6 µM (inconclusive)

SMILES: COc1ccc2nc(/N=C\N(C)C)sc2c1
- AC50 ([7]; read-out: AC50): 22.4 µM (inconclusive)
- AC50 [4]: 0.00562 µM (inconclusive)

SMILES: CC(=O)Oc1ccc2c(c1)CC[C@@H]1[C@@H]2CC[C@]2(C)[C@@H](O)CC[C@@H]12 [ESTRADIOL ACETATE]
- EC50 [8]: > 195 µM (not active)
